“And” between values parts separate entries of the source, which are not always exact repeats. Identical values can stand only once. Like-named read-outs stand apart in the source and are kept apart here. Ends that are not written are not given here.
Key:
[1] = biological target: T1, IDE (Homo sapiens, UniProt P14735); assay: biochemical; settings: for IC50: FRET1; for IC50 <500 uM?: initial test at 500 uM
T1 construct: made in house; host or cells: bacteria
T1 sequence (P14735 1-1019): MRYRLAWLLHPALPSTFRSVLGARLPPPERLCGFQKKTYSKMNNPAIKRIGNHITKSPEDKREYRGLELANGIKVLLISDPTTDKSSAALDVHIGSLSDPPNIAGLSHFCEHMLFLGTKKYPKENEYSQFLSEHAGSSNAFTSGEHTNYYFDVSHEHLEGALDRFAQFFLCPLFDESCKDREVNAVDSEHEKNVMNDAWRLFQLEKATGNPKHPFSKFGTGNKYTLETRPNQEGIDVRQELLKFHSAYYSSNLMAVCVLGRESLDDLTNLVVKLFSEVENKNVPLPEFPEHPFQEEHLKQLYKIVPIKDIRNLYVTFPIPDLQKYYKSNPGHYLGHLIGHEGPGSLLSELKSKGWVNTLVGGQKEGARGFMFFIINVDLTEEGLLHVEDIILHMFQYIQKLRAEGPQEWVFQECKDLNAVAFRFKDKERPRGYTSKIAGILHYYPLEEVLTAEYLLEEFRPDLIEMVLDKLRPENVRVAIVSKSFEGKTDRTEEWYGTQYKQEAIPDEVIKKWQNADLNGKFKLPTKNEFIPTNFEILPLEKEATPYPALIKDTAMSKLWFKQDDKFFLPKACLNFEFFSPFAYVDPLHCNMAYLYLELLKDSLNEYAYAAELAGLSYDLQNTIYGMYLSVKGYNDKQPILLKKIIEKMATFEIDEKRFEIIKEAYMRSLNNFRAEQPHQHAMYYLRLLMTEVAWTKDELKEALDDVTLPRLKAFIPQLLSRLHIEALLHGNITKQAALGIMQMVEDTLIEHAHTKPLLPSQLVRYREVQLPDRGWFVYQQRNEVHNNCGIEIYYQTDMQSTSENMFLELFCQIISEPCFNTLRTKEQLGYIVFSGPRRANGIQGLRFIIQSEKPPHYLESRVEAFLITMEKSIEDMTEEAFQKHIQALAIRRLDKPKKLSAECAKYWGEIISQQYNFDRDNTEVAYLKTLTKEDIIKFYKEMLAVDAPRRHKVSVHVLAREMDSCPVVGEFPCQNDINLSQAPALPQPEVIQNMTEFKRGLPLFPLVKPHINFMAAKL
Summary of the method: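 Recombinant human IDE (1 nM, bacterially expressed) degraded FRET1 substrate (5 μM), fluoresceinated biotinylated amyloid β (500 nM) or human insulin (50 nM) in PBS with 0.05% BSA. Peptides tested included N-acetylated and C-amidated variants.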

[2] = biological target: T1, IDE; assay: biochemical; settings: for IC50 <10 uM?: initial test at 10 uM using insulin (100 nM)
Summary of the method: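 Bacterially expressed recombinant human IDE (1 nM) in PBS with 0.05% BSA. Substrates: FRET1 (5 μM; fluorescence, ex 340/em 420 nm), fluoresceinated biotinylated amyloid β-protein (500 nM; fluorescence polarization, ex 488/em 525 nm), or recombinant human insulin (50 nM; ELISA).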

[3] = Cheng-Prusoff, KM 10 uM, substrate concentration 5 uM, read-out: Ki values, Mean
[4] = dose-response, read-out: IC50s, Mean
[5] = initial test, percent of initial velocity relative to DMSO-only controls, individual replicates, read-out: Percent activity at 500 uM, Replicate 1-4
[6] = judged as IC50 <100 uM?, individual replicates, read-out: Percent activity at 500 uM, Replicate 1-4
[7] = substrate FRET1 5 μM, Ki from IC50 with the Cheng-Prusoff equation, read-out: Ki FRET1
[8] = insulin ELISA assay, dose-response, Replicates 1-3, read-out: IC50s, individual replicates
[9] = insulin ELISA assay, dose-response, N=3, read-out: IC50s, Mean
[10] = substrate recombinant human insulin 50 nM, Ki from IC50 with the Cheng-Prusoff equation
[11] = dose-response, individual runs, read-out: IC50s, Run 1-6

Row | Ki [1, 3] | remaining activity at 31.25 µM ([1]; dose-response, 31.25 uM, individual runs, read-out: Percent Activity (normalized source data)) | IC50 [1, 4] | IC50 <500 uM? [1] | remaining activity at 500 µM [1, 5] | remaining activity at 500 µM [1, 6] | Ki [1, 7] | IC50 <10 uM? [2] | IC50 [2, 8] | IC50 [2, 9] | Ki [2, 10] | IC50 [1, 11] | IC50 ([2]; from initial test at 10 uM using insulin (100 nM), read-out: IC50 (summary of results, listed in Table 1)) | remaining activity at 500 µM ([1]; dose-response, 500 uM, individual runs, read-out: Percent Activity (normalized source data)) | Ki ([2]; as restated in the Discussion, read-out: Ki (insulin)) | Substance
1 | 3.93 µM | 46.9% | 5.89 µM | YES | 8.6% | 15.5% | 3.9 ± 0.5 µM | YES | 1.9 µM and 3.16 µM and 3.78 µM | 2.95 µM | 1.5 ± 0.3 µM | – | – | – | – | WSPISGKFFQRF [P12-4]
2 | 39.4 µM | – | 59.2 µM | YES | 13.7% | 27.1% | 39 ± 20 µM | – | – | – | > 10 µM | 25.6 µM and 32.5 µM | > 10 µM | – | – | QSLPWCYP-NH2 [P12-3B]
3 | 7.71 µM | – | 11.6 µM | YES | – | 17.6% | 7.7 ± 0.7 µM | YES | 1.58 µM and 1.47 µM and 1.72 µM | 1.59 µM | 0.8 ± 0.04 µM | 11.6 µM and 9.84 µM and 13.2 µM | – | 0.0455% | 0.8 µM | VHWDFRQWWQPS [P12-1]

Reference: article PMC5814047, “Peptidic inhibitors of insulin-degrading enzyme with potential for dermatological applications discovered via phage display” (PLoS ONE, 2018)
